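Step 1: Grow cells in 96-well plates. Step 2: Expose to compound for 48 hours at 5 concentrations. Step 3: Interpolate endpoints linearly; if unreached, use highest concentration. GI50 = concentration required for 50% inhibition of growth.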 Calls of active or inactive are those of the source. Cut-off read from the data, not from the text of the source: active = GI50 up to about 1.1 µM and inactive = higher.
Experiments:
Experiment in all cases: growth of human tumour cells (NCI), 48 h
[1] = system: CAKI-1
[2] = system: CCRF-CEM
[3] = system: COLO 205
[4] = system: EKVX
[5] = system: HOP-62
[6] = system: HOP-92
[7] = system: HT-29
[8] = system: K562
[9] = system: KM12
[10] = system: LOX IMVI
[11] = system: Malme-3M
[12] = system: NCI-H23
[13] = system: NCI-H460
[14] = system: OVCAR-5
[15] = system: RXF 393
[16] = system: SF-539
[17] = system: SK-OV-3
[18] = system: TK-10

Row | SMILES | GI50 [1] | GI50 [2] | GI50 [3] | GI50 [4] | GI50 [5] | GI50 [6] | GI50 [7] | GI50 [8] | GI50 [9] | GI50 [10] | GI50 [11] | GI50 [12] | GI50 [13] | GI50 [14] | GI50 [15] | GI50 [16] | GI50 [17] | GI50 [18]
1 | CN(C)CCONC(=O)C12CC3CC(CC(C3)C1)C2 | > 100 µM (inactive) | > 100 µM (inactive) | > 100 µM (inactive) | > 100 µM (inactive) | > 100 µM (inactive) | > 100 µM (inactive) | > 100 µM (inactive) | > 100 µM (inactive) | > 100 µM (inactive) | > 100 µM (inactive) | 0.02 µM (active) | > 100 µM (inactive) | > 100 µM (inactive) | > 100 µM (inactive) | > 100 µM (inactive) | > 100 µM (inactive) | > 100 µM (inactive) | > 100 µM (inactive)
2 | CCc1cccc(C(C)CC)c1/N=C(/NC(=O)c1ccccc1C(=O)N/C(=N/c1c(CC)cccc1C(C)CC)SC)SC (stereo unspecified) | 42.2 µM (inactive) | 27.5 µM (inactive) | 40.6 µM (inactive) | 35.6 µM (inactive) | 31.1 µM (inactive) | 10.5 µM (inactive) | 40.4 µM (inactive) | 27.7 µM (inactive) | 36 µM (inactive) | 31.3 µM (inactive) | 48.5 µM (inactive) | 31.9 µM (inactive) | 50.4 µM (inactive) | 60.1 µM (inactive) | 35.5 µM (inactive) | 26.5 µM (inactive) | 28.6 µM (inactive) | 30.8 µM (inactive)
3 | Clc1ccc(OCc2nnc3n2N=C(c2ccc(Br)cc2)CS3)cc1 | > 10 µM (inactive) | > 100 µM (inactive) |  |  | 9.82 µM (inactive) | 11.2 µM (inactive) | 36.2 µM (inactive) | > 100 µM (inactive) | 80.7 µM (inactive) | 3.74 µM (inactive) | 28 µM (inactive) | 40.9 µM (inactive) | 17.7 µM (inactive) | > 100 µM (inactive) | 12.1 µM (inactive) | 8.43 µM (inactive) | 15 µM (inactive) | 14.4 µM (inactive)
4 | C=CCO[C@H]1CC[C@@]2(C)C(CC[C@]3(C)C2CC=C2[C@@H]4[C@@H](C)C(C)CC[C@]4(C(=O)O)CCC23C)C1(C)C (stereo partly specified) | 17.9 µM (inactive) | 13.2 µM (inactive) | 16 µM (inactive) | 21.2 µM (inactive) | 22.1 µM (inactive) | 16.3 µM (inactive) | 16.3 µM (inactive) | 14.3 µM (inactive) | 16.1 µM (inactive) | 13.5 µM (inactive) | 19.5 µM (inactive) | 14.9 µM (inactive) | 17.5 µM (inactive) |  | 6.05 µM (inactive) | 17 µM (inactive) | 16.9 µM (inactive) | 18.2 µM (inactive)
5 | CCCC(C)n1c(C)nc2c1C(=O)c1ccccc1C2=O (stereo unspecified) |  | 30.3 µM (inactive) | 23.3 µM (inactive) | 43.6 µM (inactive) | 20 µM (inactive) | 16.7 µM (inactive) | 17.3 µM (inactive) | 8.57 µM (inactive) | 22.9 µM (inactive) | 8.71 µM (inactive) | 23.8 µM (inactive) | 15.6 µM (inactive) | 4.6 µM (inactive) |  | 20 µM (inactive) | 13 µM (inactive) | 42.7 µM (inactive) | 31 µM (inactive)
6 | CC(C)(c1ccccc1)c1ccc(Oc2ccc3c(c2)-c2nc-3nc3[nH]c(nc4nc(nc5[nH]c(n2)c2ccc(Oc6ccc(C(C)(C)c7ccccc7)cc6)cc52)-c2cc(Oc5ccc(C(C)(C)c6ccccc6)cc5)ccc2-4)c2ccc(Oc4ccc(C(C)(C)c5ccccc5)cc4)cc32)cc1 |  | > 100 µM (inactive) | > 100 µM (inactive) | > 100 µM (inactive) | 64.6 µM (inactive) | 17.8 µM (inactive) | > 100 µM (inactive) | > 100 µM (inactive) | > 100 µM (inactive) | > 100 µM (inactive) | > 100 µM (inactive) | > 100 µM (inactive) | > 100 µM (inactive) | > 100 µM (inactive) | 23.9 µM (inactive) | 35 µM (inactive) | > 100 µM (inactive) | 80.2 µM (inactive)
7 | COc1c2c(c(OC)c3c(=O)cc(C/C(=N/NC(=O)C[n+]4ccccc4)C(=O)Nc4cc(C)ccc4C)oc13)OCO2 | > 100 µM (inactive) | > 100 µM (inactive) | > 100 µM (inactive) | > 100 µM (inactive) | > 100 µM (inactive) | > 100 µM (inactive) | > 100 µM (inactive) | > 100 µM (inactive) | > 100 µM (inactive) | > 100 µM (inactive) | > 100 µM (inactive) | > 100 µM (inactive) | > 100 µM (inactive) | > 100 µM (inactive) | > 100 µM (inactive) | > 100 µM (inactive) | > 100 µM (inactive) | > 100 µM (inactive)
8 | CN(C)/N=C(/c1nc2ccc([N+](=O)[O-])cc2nc1O)C(O)c1ccco1 (stereo unspecified) | 48.1 µM (inactive) | > 100 µM (inactive) | > 100 µM (inactive) |  | 72.1 µM (inactive) | > 100 µM (inactive) | > 100 µM (inactive) | > 100 µM (inactive) | 34.8 µM (inactive) | 50 µM (inactive) | > 100 µM (inactive) | > 100 µM (inactive) | > 100 µM (inactive) | > 100 µM (inactive) | > 100 µM (inactive) | > 100 µM (inactive) | > 100 µM (inactive) | 
